For 1 compound, IC50 results are on record in publication PMC9672091, “Ameliorative effect of vanillin on scopolamine-induced dementia-like cognitive impairment in a mouse model” (Frontiers in Neuroscience, 2022).

This assay deals with T1, acetylcholinesterase enzyme (from electric eel) (Electrophorus electricus, UniProt O42275).
T1 construct: gene ache; commercial enzyme from electric eel (Sigma-Aldrich), native source; no construct or oligomer details printed
As to the kind of experiment: modified Ellman assay, absorbance at […] nm. The assay is classed as biochemical.

SMILES strings stand for the structures.

T1 sequence (O42275 24-633): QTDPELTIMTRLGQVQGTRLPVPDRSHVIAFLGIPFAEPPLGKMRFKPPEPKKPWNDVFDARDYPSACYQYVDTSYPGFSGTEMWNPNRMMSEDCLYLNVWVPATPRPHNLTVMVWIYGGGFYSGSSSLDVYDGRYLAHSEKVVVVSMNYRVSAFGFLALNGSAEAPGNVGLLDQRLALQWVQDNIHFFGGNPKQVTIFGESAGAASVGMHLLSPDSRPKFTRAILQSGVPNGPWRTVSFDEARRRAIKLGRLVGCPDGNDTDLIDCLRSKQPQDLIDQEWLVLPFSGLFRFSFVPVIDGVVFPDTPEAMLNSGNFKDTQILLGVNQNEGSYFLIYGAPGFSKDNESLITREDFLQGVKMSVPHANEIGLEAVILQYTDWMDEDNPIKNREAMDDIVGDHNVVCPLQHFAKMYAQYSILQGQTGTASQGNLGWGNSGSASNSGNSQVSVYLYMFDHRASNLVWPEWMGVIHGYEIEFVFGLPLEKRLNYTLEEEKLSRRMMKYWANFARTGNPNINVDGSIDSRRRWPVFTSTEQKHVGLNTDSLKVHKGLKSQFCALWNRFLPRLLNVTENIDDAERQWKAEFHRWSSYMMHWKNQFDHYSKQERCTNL

`COc1cc(C=O)ccc1O` [Vanillin] displayed an IC50 of 33 µM.
